Test results from patent US11261201B2 (priority 2018, dated 2022).
Converted amounts (≈) assume the structure as drawn. Where a name gives a salt, the structure may show the parent alone. Read-outs that look alike come from different tables or passages of the source.

Assays:
[1] = system: H37RvMA; experiment: Tuberculosis Alamar Blue/Resazurin assay (MIC); assay type: cell-based; conditions: Mycobacterium tuberculosis, H37RV, read-out: WT H37Rv MTB Activity
[2] = system: E. coli; experiment: Gram negative MIC protocol (OD600, LB, 24 h); conditions: Escherichia coli
Method: (§1) Overnight bacterial cultures were grown in LB with no added antibiotics at 37° C. with shaking. A 1:1000 dilution of these cultures into LB was exposed to concentration gradients of compounds in 96-well plates (100 μL per well assay volume). Resulting plates were incubated at 37° C. for 24 h without shaking, and OD600 was measured at the end of the incubation. MICs were determined as the lowest concentrations at which OD600 remained at baseline.

[3] = system: A. baumannii; experiment: Gram negative MIC protocol (OD600, LB, 24 h); conditions: Acinetobacter baumannii
Method: as §1

[4] = read-out: MIC E. coli delta-TolC LB Media, E. coli delta-TolC strain, LB media, 24 h, OD600
[5] = read-out: MIC WT E. coli LB Media, wild-type E. coli, LB media, 24 h, OD600
[6] = read-out: MIC A. baumannii LB Media, A. baumannii, LB media, 24 h, OD600

`NC(=O)c1ccccc1CNCCC1CCCCC1` [B259, 2-((2-cyclohexylethylamino)methyl)benzamide trifluoroacetate] was tested, and the MIC [1] was greater than 150 µM, the MIC [2, 4] was 125 µM and the MIC [2, 5] was greater than 150 µM. The MIC ([3]; read-out: MIC A. baumannii LB Media) was greater than 150 µM.

Compound `CC(CC1CCCCC1)NCc1ccccc1OCCOC1CCCC1` (centres unmarked) [B260] has an MIC ([1]; WT H37Rv MTB) of 91 µM (≈ 32.7 µg/mL), an MIC [2, 4] of 7 µM (≈ 2.52 µg/mL) and an MIC [2, 5] greater than 150 µM. It also gave an MIC [3, 6] greater than 150 µM.

With `CC(CC1CCCCC1)NCc1ccccc1OCCOCC1CC1` (centres unmarked) [B261] the MIC ([1]; WT H37Rv MTB) was 150 µM (≈ 51.8 µg/mL), the MIC [2, 4] was 4 µM (≈ 1.38 µg/mL) and the MIC [2, 5] was greater than 150 µM. For the same compound, the MIC [3, 6] was greater than 150 µM.

`CC(CC1CCCCC1)NCc1ccccc1OCCOCC(F)(F)C(F)(F)F` (centres unmarked) [B262] was tested, and the MIC ([1]; WT H37Rv MTB) was 55 µM (≈ 23.3 µg/mL), the MIC [2, 4] was 12 µM (≈ 5.08 µg/mL) and the MIC [2, 5] was 150 µM (≈ 63.5 µg/mL). For the same compound, the MIC [3, 6] was 91 µM (≈ 38.5 µg/mL).

With `CC(CC1CCCCC1)NCc1ccccc1OCC(=O)N(C)C1CCCCC1` (centres unmarked) [B263] the MIC ([1]; WT H37Rv MTB) was 91 µM (≈ 36.5 µg/mL), the MIC [2, 4] was 3 µM (≈ 1.2 µg/mL) and the MIC [2, 5] was greater than 150 µM. The MIC [3, 6] was greater than 150 µM.

`CC(CC1CCCCC1)NCc1ccccc1OCCCN1CCOC1=O` (centres unmarked) [B264] showed an MIC ([1]; WT H37Rv MTB) greater than 150 µM, an MIC [2, 4] of 3 µM (≈ 1.12 µg/mL) and an MIC [2, 5] of 150 µM (≈ 56.2 µg/mL). It also gave an MIC [3, 6] of 150 µM (≈ 56.2 µg/mL).

In the case of `COC(=O)c1occc1COc1ccccc1CNC(C)CC1CCCCC1` (centres unmarked) [B265], the MIC ([1]; WT H37Rv MTB) was 91 µM (≈ 35.1 µg/mL), the MIC [2, 4] was 3 µM (≈ 1.16 µg/mL) and the MIC [2, 5] was 150 µM (≈ 57.8 µg/mL). For the same compound, the MIC [3, 6] was 91 µM (≈ 35.1 µg/mL).

In the case of `COc1cccc(OCCOc2ccccc2CNC(C)CC2CCCCC2)c1` (centres unmarked) [B266], the MIC ([1]; WT H37Rv MTB) was 55 µM (≈ 21.9 µg/mL), the MIC [2, 4] was 2 µM (≈ 0.795 µg/mL) and the MIC [2, 5] was 150 µM (≈ 59.6 µg/mL). The MIC [3, 6] was 33 µM (≈ 13.1 µg/mL).

`COC(=O)c1ccoc1COc1ccccc1CNC(C)CC1CCCCC1` (centres unmarked) [B267] showed an MIC ([1]; WT H37Rv MTB) of 91 µM (≈ 35.1 µg/mL), an MIC [2, 4] of 7 µM (≈ 2.7 µg/mL) and an MIC [2, 5] greater than 150 µM. It also gave an MIC [3, 6] greater than 150 µM.

With `CCc1cnc(COc2ccccc2CNC(C)CC2CCCCC2)o1` (centres unmarked) [B268] the MIC ([1]; WT H37Rv MTB) was 91 µM (≈ 32.4 µg/mL), the MIC [2, 4] was 7 µM (≈ 2.5 µg/mL) and the MIC [2, 5] was greater than 150 µM. It also gave an MIC [3, 6] greater than 150 µM.

For `CC(CC1CCCCC1)NCc1ccccc1OCC1(CO)COC1` (centres unmarked) [B269], the MIC ([1]; WT H37Rv MTB) was greater than 150 µM, the MIC [2, 4] was 7 µM (≈ 2.43 µg/mL) and the MIC [2, 5] was greater than 150 µM. It also gave an MIC [3, 6] of 55 µM (≈ 19.1 µg/mL).

Work on `CC(CC1CCCCC1)NCc1ccccc1OCC(=O)NC(C)C(=O)N(C)C` (centres unmarked) [B270] yielded an MIC ([1]; WT H37Rv MTB) greater than 150 µM, an MIC [2, 4] of 20 µM (≈ 8.07 µg/mL) and an MIC [2, 5] greater than 150 µM. The MIC [3, 6] was greater than 150 µM.

`COc1ccc(OCCCOc2ccccc2CNC(C)CC2CCCCC2)cc1` (centres unmarked) [B271] showed an MIC ([1]; WT H37Rv MTB) of 55 µM (≈ 22.6 µg/mL), an MIC [2, 4] of 3 µM (≈ 1.23 µg/mL) and an MIC [2, 5] of 150 µM (≈ 61.7 µg/mL). For the same compound, the MIC [3, 6] was 55 µM (≈ 22.6 µg/mL).

Compound `COC(=O)c1cc(COc2ccccc2CNC(C)CC2CCCCC2)oc1C` (centres unmarked) [B272] has an MIC ([1]; WT H37Rv MTB) of 150 µM (≈ 59.9 µg/mL), an MIC [2, 4] of 12 µM (≈ 4.79 µg/mL) and an MIC [2, 5] greater than 150 µM. For the same compound, the MIC [3, 6] was greater than 150 µM.

Compound `CC1CCCN(C(=O)COc2ccccc2CNC(C)CC2CCCCC2)C1` (centres unmarked) [B273] has an MIC ([1]; WT H37Rv MTB) of 150 µM (≈ 58 µg/mL), an MIC [2, 4] of 4 µM (≈ 1.55 µg/mL) and an MIC [2, 5] greater than 150 µM. The MIC [3, 6] was greater than 150 µM.

`CC(CC1CCCCC1)NCc1ccccc1OCCOCCO` (centres unmarked) [B274] gave an MIC ([1]; WT H37Rv MTB) greater than 150 µM, an MIC [2, 4] of 7 µM (≈ 2.35 µg/mL) and an MIC [2, 5] of 150 µM (≈ 50.3 µg/mL). The MIC [3, 6] was 150 µM (≈ 50.3 µg/mL).

`CC(CC1CCCCC1)NCc1ccccc1OCCC(C)(C)O` (centres unmarked) [B275] gave an MIC ([1]; WT H37Rv MTB) greater than 150 µM, an MIC [2, 4] of 4 µM (≈ 1.33 µg/mL) and an MIC [2, 5] of 150 µM (≈ 50 µg/mL). The MIC [3, 6] was 91 µM (≈ 30.3 µg/mL).

Compound `COC(=O)CCCOc1ccccc1CNC(C)CC1CCCCC1` (centres unmarked) [B276] has an MIC ([1]; WT H37Rv MTB) greater than 150 µM, an MIC [2, 4] of 4 µM (≈ 1.39 µg/mL) and an MIC [2, 5] greater than 150 µM. For the same compound, the MIC [3, 6] was greater than 150 µM.

`COCCCCOc1ccccc1CNC(C)CC1CCCCC1` (centres unmarked) [B277] was tested, and the MIC ([1]; WT H37Rv MTB) was greater than 150 µM, the MIC [2, 4] was 4 µM (≈ 1.33 µg/mL) and the MIC [2, 5] was greater than 150 µM. The MIC [3, 6] was greater than 150 µM.

`Cc1noc(COc2ccccc2CNC(C)CC2CCCCC2)n1` (centres unmarked) [B278] showed an MIC ([1]; WT H37Rv MTB) greater than 150 µM, an MIC [2, 4] of 12 µM (≈ 4.12 µg/mL) and an MIC [2, 5] greater than 150 µM. It also gave an MIC [3, 6] greater than 150 µM.

`Cc1nnc(COc2ccccc2CNC(C)CC2CCCCC2)o1` (centres unmarked) [B279] was tested, and the MIC ([1]; WT H37Rv MTB) was greater than 150 µM, the MIC [2, 4] was 12 µM (≈ 4.12 µg/mL) and the MIC [2, 5] was greater than 150 µM. It also gave an MIC [3, 6] greater than 150 µM.

Work on `CC(CC1CCCCC1)NCc1ccccc1OCC(=O)NC1CC1` (centres unmarked) [B280] yielded an MIC ([1]; WT H37Rv MTB) greater than 150 µM, an MIC [2, 4] of 12 µM (≈ 4.13 µg/mL) and an MIC [2, 5] of 150 µM (≈ 51.7 µg/mL). For the same compound, the MIC [3, 6] was 150 µM (≈ 51.7 µg/mL).

For `CC(CC1CCCCC1)NCc1ccccc1OCC1CCOCC1` (centres unmarked) [B281], the MIC ([1]; WT H37Rv MTB) was 91 µM (≈ 31.4 µg/mL), the MIC [2, 4] was 4 µM (≈ 1.38 µg/mL) and the MIC [2, 5] was greater than 150 µM. The MIC [3, 6] was 91 µM (≈ 31.4 µg/mL).

`Cc1cc(COc2ccccc2CNC(C)CC2CCCCC2)no1` (centres unmarked) [B282] was tested, and the MIC ([1]; WT H37Rv MTB) was 150 µM (≈ 51.4 µg/mL), the MIC [2, 4] was 3 µM (≈ 1.03 µg/mL) and the MIC [2, 5] was greater than 150 µM. It also gave an MIC [3, 6] greater than 150 µM.

`CC(CC1CCCCC1)NCc1ccccc1OCc1ccncc1` (centres unmarked) [B283] was tested, and the MIC ([1]; WT H37Rv MTB) was 150 µM (≈ 50.8 µg/mL), the MIC [2, 4] was 7 µM (≈ 2.37 µg/mL) and the MIC [2, 5] was 91 µM (≈ 30.8 µg/mL). It also gave an MIC [3, 6] of 91 µM (≈ 30.8 µg/mL).

With `CC(CC1CCCCC1)NCc1ccccc1OCC(=O)NCC1CC1` (centres unmarked) [B284] the MIC ([1]; WT H37Rv MTB) was greater than 150 µM, the MIC [2, 4] was 7 µM (≈ 2.51 µg/mL) and the MIC [2, 5] was greater than 150 µM. For the same compound, the MIC [3, 6] was greater than 150 µM.

`CC(CC1CCCCC1)NCc1ccccc1OCCC(N)=O` (centres unmarked) [B285] was tested, and the MIC ([1]; WT H37Rv MTB) was greater than 150 µM, the MIC [2, 4] was 55 µM (≈ 17.5 µg/mL) and the MIC [2, 5] was 91 µM (≈ 29 µg/mL). For the same compound, the MIC [3, 6] was greater than 150 µM.

`CC(CC1CCCCC1)NCc1ccccc1OCc1ccccc1F` (centres unmarked) [B286] showed an MIC ([1]; WT H37Rv MTB) of 33 µM (≈ 11.7 µg/mL), an MIC [2, 4] of 3 µM (≈ 1.07 µg/mL) and an MIC [2, 5] of 91 µM (≈ 32.4 µg/mL). The MIC [3, 6] was 91 µM (≈ 32.4 µg/mL).

With `CC(CC1CCCCC1)NCc1ccccc1OCC1CC1` (centres unmarked) [B287] the MIC ([1]; WT H37Rv MTB) was 150 µM (≈ 45.2 µg/mL), the MIC [2, 4] was 3 µM (≈ 0.904 µg/mL) and the MIC [2, 5] was 150 µM (≈ 45.2 µg/mL). It also gave an MIC [3, 6] of 91 µM (≈ 27.4 µg/mL).
